From the supplement of paper PMC10790783

System: MRC5-hT fibroblasts expressing HCMV UL38 (glucose-free medium)
Assay: rescue of cell number (AUC of dose-response) relative to untreated glucose-free control; higher = stronger protection from glucose-starvation-induced cell death
Settings: glucose: 0 (glucose-free DMEM); 96 h; dose range 0.001-20, 10-point curve µM
Experimental: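 MRC5-hT fibroblasts stably expressing HCMV UL38 were seeded in 384-well plates, serum-starved for 24 h, switched to glucose-free DMEM, and pin-transferred with a metabolism-focused compound library as 10-point dose curves (1 nM to 20 µM; n=2). Nuclei were counted by Hoechst imaging 96 h after glucose withdrawal.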

SMILES | rescue of cell number
CC[n+]1c(-c2ccccc2)c2cc(N)ccc2c2ccc(N)cc21 [Ethidium_Bromide] | 97.6%
Cc1nccn1-c1ccc(Sc2cccc(C3(C(N)=O)CCOCC3)c2)cc1 | 13%
Nc1ccn([C@@H]2C=C(CO)[C@@H](O)[C@H]2O)c(=O)n1 [Cyclopentenyl_cytosine] | 84.2%
Cc1ccc(-c2c(-c3nn(C)c4ncnc(N5CC[C@H](N6CCCCC6)C5)c34)cnn2C)cc1 | 45.6%
CC1=C(CC(=O)O)c2cc(F)ccc2/C1=C\c1ccc([S+](C)[O-])cc1 (configuration not stated) [Sulindac] | -22.1%
NC(=O)c1[nH]nc([C@@H]2O[C@H](CO)[C@@H](O)[C@H]2O)c1O [Pyrazofurin] | 26.5%
Nc1nc(F)nc2c1ncn2[C@@H]1O[C@H](CO)[C@@H](O)[C@@H]1O [Fludarabine] | 103%
Nc1nc(Cl)nc2c1ncn2[C@H]1C[C@H](O)[C@@H](CO)O1 [Cladribine] | -12.9%
O=C(Oc1ccc([N+](=O)[O-])cc1)N1CCC(C(O)(c2ccc3c(c2)OCO3)c2ccc3c(c2)OCO3)CC1 [JZL184] | 136%
CC(=O)NC(CSC(=S)Nc1ccc(NC(=S)SCC(NC(C)=O)C(=O)O)cc1)C(=O)O (configuration not stated) [2-AAPA hydrate] | -9.91%
C=CCN(C)CCCCCCOc1ccc(C(=O)c2ccc(Br)cc2)c(F)c1 [Ro_48_8071] | -2.22%
Cc1ccc(-c2cc(=O)c3ccc4ccccc4c3o2)cc1 | 155%
O=C(C1CC1)N1CC[C@@H](Cc2n[nH]c(=O)n2-c2ccc(-c3ccc4occc4c3)cc2)C1 | 117%
O=C(N[C@H](CO)[C@H](O)c1ccc([N+](=O)[O-])cc1)C(Cl)Cl [Chloramphenicol] | -10.7%
O=C(O)CC[N+](=O)[O-] [3_Nitropropionic_acid] | -31.7%
CN(CCOc1ccc(CC2SC(=O)NC2=O)cc1)c1ccccn1 (configuration not stated) [Rosiglitazone] | 4.26%
CCCCCCCCCCCCCCOc1ccc(C(=O)O)o1 [TOFA] | 48.9%
OC[C@H]1O[C@H]([S-])[C@H](O)[C@@H](O)[C@@H]1O.[Au+] [Aurothioglucose] | -13.7%
CC1=C(/C=C/C(C)=C/C=C/C(C)=C/C(=O)Nc2ccc(O)cc2)C(C)(C)CCC1 [Fenretinide] | 12.2%
CCOC(=O)N1c2ccc(C(F)(F)F)cc2[C@@H](N(Cc2cc(C(F)(F)F)cc(C(F)(F)F)c2)C(=O)OC)C[C@H]1CC [Torcetrapib] | -13.1%
O=C(O)CSc1nnc(Br)n1-c1ccc(C2CC2)c2ccccc12 [Lesinurad] | -28.1%
O=C(NNc1ccccc1)c1ccncc1 [PluriSln_1] | 41.4%
Cc1cccc(CC(=O)N2CCc3c2ccc(-c2cn(C)c4ncnc(N)c24)c3F)n1 | 70.7%
O=C(CCCCCCCn1cc(-c2cccnc2)nn1)Nc1ccccc1-c1ccccc1 [GPP_78] | 20.3%
Cc1onc(C(=O)N2CCN(C(c3ccc(Cl)cc3)c3ccc(Cl)cc3)CC2)c1[N+](=O)[O-] [ML-210] | -2.73%
O=C(O)[C@@]1(CCCCCCOc2ccc(Cl)cc2)CO1 [(R)_(+)_Etomoxir_sodium_salt] | 17.7%

SMILES | rescue of cell number
S=c1nc[nH]c2nc[nH]c12 [6_Mercaptopurine] | -28.9%
CC(C)(C)NC(=O)[C@H]1CC[C@H]2[C@@H]3CC[C@H]4NC(=O)C=C[C@]4(C)[C@H]3CC[C@]12C [Finasteride] | -38.3%
Nc1nc(=S)c2[nH]cnc2[nH]1 [6_Thioguanine] | 42.9%
CCc1c(-c2ccccc2)c(-c2ccccc2)nn1-c1ccccc1-c1cccc(OCC(=O)O)c1 | -14.6%
O=C(O)c1ccc2cc(-c3ccc(O)c(C45CC6CC(CC(C6)C4)C5)c3)ccc2c1 [CD_437] | 25.4%
Cc1ccc(-c2cc(C(F)(F)F)nn2-c2ccc(S(N)(=O)=O)cc2)cc1 [Celecoxib] | 68.1%
CCN(CC)Cc1ccc(C(=O)N(CCc2ccccc2OC)[C@@H]2CCNC2)cc1 | 63.9%
S=C=NCCc1ccccc1 [PEITC] | 37.8%
CC(C)c1nc(N(C)S(C)(=O)=O)nc(-c2ccc(F)cc2)c1/C=C/[C@@H](O)C[C@@H](O)CC(=O)O [Rosuvastatin] | 45.3%
Cn1c2cc([S+](C)[O-])sc2c2cnn(Cc3cccc(N)c3)c(=O)c21 (configuration not stated) [TEPP_46] | 92.3%
Cc1ccc([C@@H]2O[C@H](CO)[C@@H](O)[C@H](O)[C@H]2O)cc1Cc1ccc(-c2ccc(F)cc2)s1 [Canagliflozin] | 108%
CC(C)(C#N)c1cc(Cn2cncn2)cc(C(C)(C)C#N)c1 [Anastrozole] | 29.4%
O=c1oc2ccccc2c(O)c1Cc1c(O)c2ccccc2oc1=O [Dicoumarol] | -17.7%
NC(=O)NO [Hydroxyurea] | 61.6%
CC(C)C[C@@H](C(=O)N[C@H](C(=O)OC1CCCC1)c1ccccc1)[C@H](O)C(=O)NO [CHR_2797] | -14.9%
CN(NC(=O)CC(=O)NN(C)C(=S)c1ccccc1)C(=S)c1ccccc1 [Elesclomol] | 111%
CCCCCCCCc1ccc(CCC(N)(CO)CO)cc1 [Fingolimod] | -1.64%
CC(=O)c1ccc2c(c1)Nc1ccccc1S2 [ML_171] | 23%
CC1(C)CCC(c2ccc(Cl)cc2)=C(CN2CCN(c3ccc(C(=O)NS(=O)(=O)c4ccc(N[C@H](CCN5CCOCC5)CSc5ccccc5)c(S(=O)(=O)C(F)(F)F)c4)cc3)CC2)C1 [ABT_263] | 33.6%
CN(C/C=C/C#CC(C)(C)C)Cc1cccc2ccccc12 [Terbinafine_HCl] | -15.4%
CC(=O)O[C@H]1C(=O)[C@@]2(C)[C@H]([C@H](OC(=O)c3ccccc3)[C@]3(O)C[C@H](OC(=O)[C@H](O)[C@@H](NC(=O)c4ccccc4)c4ccccc4)C(C)=C1C3(C)C)[C@]1(OC(C)=O)CO[C@@H]1C[C@@H]2O [Taxol] | 21.5%
C=CCNC1=C2C[C@@H](C)C[C@H](OC)[C@H](O)[C@@H](C)/C=C(\C)[C@H](OC(N)=O)[C@@H](OC)/C=C\C=C(/C)C(=O)NC(=CC1=O)C2=O [17_AAG] | 54.1%
CN1C(=O)[C@@]23C[C@]4([C@]56C[C@@]78SS[C@@](CO)(C(=O)N7[C@H]5Nc5ccccc56)N(C)C8=O)c5ccccc5N[C@@H]4N2C(=O)[C@]1(CO)SS3 [Chaetocin] | 11.4%
CC(=O)NC[C@H]1CN(c2ccc(N3CCOCC3)c(F)c2)C(=O)O1 [Linezolid] | -6.21%
O=[N+]([O-])c1ccc(O)c([N+](=O)[O-])c1 [2_4_Dinitrophenol] | 16.9%
O=S(=O)(O)CCSSCCS(=O)(=O)O [Dimesna] | -37.8%
